Drawing on ChEMBL document CHEMBL5715954, “Silencing c-Myc translation as a therapeutic strategy through targeting PI3Kδ and CK1ε in hematological malignancies” (Blood, 2017), this text covers Activity for 3 molecules.

The structures appear in SMILES notation.

Holding throughout (parameters): scale not given: the % may be the effect or the level left
For assay [1], the target named is T1, Bone morphogenetic protein receptor type-2 (Homo sapiens) (UniProt Q13873).
T1 sequence (whole entry): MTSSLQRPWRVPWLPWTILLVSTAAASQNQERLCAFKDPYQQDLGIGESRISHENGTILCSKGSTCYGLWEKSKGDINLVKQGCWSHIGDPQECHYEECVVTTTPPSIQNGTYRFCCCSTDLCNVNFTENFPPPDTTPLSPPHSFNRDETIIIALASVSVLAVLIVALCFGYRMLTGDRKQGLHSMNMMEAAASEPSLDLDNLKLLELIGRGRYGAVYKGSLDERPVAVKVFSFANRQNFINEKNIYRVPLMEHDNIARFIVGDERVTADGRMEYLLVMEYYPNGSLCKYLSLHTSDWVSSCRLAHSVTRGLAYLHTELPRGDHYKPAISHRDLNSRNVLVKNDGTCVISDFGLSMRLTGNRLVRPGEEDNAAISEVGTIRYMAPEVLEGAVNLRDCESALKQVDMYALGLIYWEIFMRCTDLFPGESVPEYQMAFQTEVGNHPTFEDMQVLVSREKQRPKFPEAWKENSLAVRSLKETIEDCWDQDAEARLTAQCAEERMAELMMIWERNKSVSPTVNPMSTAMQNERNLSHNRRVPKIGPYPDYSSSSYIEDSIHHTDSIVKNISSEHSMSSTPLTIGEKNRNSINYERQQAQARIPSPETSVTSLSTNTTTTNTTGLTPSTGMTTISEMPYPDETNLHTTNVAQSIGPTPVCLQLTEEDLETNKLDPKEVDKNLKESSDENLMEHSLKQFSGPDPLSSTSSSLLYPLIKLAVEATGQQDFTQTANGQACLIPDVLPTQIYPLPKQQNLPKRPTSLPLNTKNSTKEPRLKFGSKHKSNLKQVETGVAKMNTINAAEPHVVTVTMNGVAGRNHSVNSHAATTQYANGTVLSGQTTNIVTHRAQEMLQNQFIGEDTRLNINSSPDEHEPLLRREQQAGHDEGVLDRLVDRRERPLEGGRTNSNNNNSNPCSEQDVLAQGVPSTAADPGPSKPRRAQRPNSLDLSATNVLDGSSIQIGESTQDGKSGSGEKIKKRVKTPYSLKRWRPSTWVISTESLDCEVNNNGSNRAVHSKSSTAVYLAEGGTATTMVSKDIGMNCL
Put plainly: Inhibition of human BMPR2 assessed as enzyme activity at 1 uM using myelin basic protein as substrate preincubated for 20 mins followed by [gamma-33P]-ATP addition and measured after 120 mins by radiometric Hot-SpotSM Kinase assay relative to control.

The target of assay [2] is Dual specificity protein kinase CLK1 (Homo sapiens) (UniProt P49759). Put plainly: Inhibition of human CLK1 assessed as enzyme activity at 1 uM using myelin basic protein as substrate preincubated for 20 mins followed by [gamma-33P]-ATP addition and measured after 120 mins by radiometric Hot-SpotSM Kinase assay relative to control.
Sequence of Dual specificity protein kinase CLK1 (Homo sapiens) (P49759 whole entry, looked up): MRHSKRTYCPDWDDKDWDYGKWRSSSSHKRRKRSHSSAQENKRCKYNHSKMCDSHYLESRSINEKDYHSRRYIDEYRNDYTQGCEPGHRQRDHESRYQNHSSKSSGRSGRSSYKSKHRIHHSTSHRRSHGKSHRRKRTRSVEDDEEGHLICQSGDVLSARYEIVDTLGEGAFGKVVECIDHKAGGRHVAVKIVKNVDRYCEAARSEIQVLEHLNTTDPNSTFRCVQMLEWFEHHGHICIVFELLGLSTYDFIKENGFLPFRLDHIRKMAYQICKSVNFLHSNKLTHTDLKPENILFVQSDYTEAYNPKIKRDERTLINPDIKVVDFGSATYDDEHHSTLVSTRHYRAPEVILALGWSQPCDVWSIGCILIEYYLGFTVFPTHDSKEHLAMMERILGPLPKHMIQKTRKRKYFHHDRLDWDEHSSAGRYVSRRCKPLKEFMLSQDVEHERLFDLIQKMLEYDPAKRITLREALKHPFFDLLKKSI
The target in assay [3] is Receptor-type tyrosine-protein kinase FLT3 (Homo sapiens) (UniProt P36888). As to the kind of experiment: Inhibition of human FLT3 assessed as enzyme activity at 1 uM using EAIYAAPFAKKK as substrate preincubated for 20 mins followed by [gamma-33P]-ATP addition and measured after 120 mins by radiometric Hot-SpotSM Kinase assay relative to control.
In assay [4] the target is Homeodomain-interacting protein kinase 2 (Homo sapiens) (UniProt Q9H2X6). As to the kind of experiment: Inhibition of human HIPK2 assessed as enzyme activity at 1 uM using myelin basic protein as substrate preincubated for 20 mins followed by [gamma-33P]-ATP addition and measured after 120 mins by radiometric Hot-SpotSM Kinase assay relative to control.
Sequence of Homeodomain-interacting protein kinase 2 (Homo sapiens) (Q9H2X6 whole entry, looked up): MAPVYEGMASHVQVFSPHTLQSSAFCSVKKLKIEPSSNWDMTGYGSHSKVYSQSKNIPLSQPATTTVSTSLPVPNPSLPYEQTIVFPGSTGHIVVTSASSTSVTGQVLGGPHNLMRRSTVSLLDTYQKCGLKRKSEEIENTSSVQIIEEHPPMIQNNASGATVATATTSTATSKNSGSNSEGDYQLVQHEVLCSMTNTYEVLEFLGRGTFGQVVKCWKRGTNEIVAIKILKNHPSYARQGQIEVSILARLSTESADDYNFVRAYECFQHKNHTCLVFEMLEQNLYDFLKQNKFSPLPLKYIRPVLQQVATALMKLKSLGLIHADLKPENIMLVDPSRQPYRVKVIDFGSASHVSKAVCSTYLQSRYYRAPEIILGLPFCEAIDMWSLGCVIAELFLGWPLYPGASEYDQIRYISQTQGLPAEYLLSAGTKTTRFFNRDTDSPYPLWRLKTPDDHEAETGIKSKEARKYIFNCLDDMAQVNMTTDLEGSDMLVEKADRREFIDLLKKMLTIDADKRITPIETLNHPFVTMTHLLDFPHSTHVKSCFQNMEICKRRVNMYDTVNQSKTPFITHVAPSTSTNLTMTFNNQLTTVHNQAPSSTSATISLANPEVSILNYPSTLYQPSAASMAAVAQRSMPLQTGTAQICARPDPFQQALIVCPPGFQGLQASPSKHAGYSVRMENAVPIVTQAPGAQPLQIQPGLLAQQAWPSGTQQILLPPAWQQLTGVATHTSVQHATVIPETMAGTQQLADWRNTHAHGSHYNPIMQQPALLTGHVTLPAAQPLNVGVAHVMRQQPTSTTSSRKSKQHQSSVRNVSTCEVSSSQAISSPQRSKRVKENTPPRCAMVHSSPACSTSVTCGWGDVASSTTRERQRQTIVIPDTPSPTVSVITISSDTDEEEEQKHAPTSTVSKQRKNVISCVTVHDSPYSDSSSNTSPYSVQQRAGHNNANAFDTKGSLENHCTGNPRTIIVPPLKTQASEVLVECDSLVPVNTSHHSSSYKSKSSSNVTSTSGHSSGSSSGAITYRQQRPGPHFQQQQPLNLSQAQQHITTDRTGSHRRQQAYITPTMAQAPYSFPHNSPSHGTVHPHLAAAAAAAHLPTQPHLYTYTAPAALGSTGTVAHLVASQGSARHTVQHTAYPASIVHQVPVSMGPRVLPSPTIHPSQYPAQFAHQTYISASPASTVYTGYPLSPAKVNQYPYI
The target of assay [5] is Maternal embryonic leucine zipper kinase (Homo sapiens) (UniProt Q14680). As to the kind of experiment: Inhibition of human MELK assessed as enzyme activity at 1 uM using KKLNRTLSFAEPG as substrate preincubated for 20 mins followed by [gamma-33P]-ATP addition and measured after 120 mins by radiometric Hot-SpotSM Kinase assay relative to control.
Sequence of Maternal embryonic leucine zipper kinase (Homo sapiens) (Q14680 whole entry, looked up): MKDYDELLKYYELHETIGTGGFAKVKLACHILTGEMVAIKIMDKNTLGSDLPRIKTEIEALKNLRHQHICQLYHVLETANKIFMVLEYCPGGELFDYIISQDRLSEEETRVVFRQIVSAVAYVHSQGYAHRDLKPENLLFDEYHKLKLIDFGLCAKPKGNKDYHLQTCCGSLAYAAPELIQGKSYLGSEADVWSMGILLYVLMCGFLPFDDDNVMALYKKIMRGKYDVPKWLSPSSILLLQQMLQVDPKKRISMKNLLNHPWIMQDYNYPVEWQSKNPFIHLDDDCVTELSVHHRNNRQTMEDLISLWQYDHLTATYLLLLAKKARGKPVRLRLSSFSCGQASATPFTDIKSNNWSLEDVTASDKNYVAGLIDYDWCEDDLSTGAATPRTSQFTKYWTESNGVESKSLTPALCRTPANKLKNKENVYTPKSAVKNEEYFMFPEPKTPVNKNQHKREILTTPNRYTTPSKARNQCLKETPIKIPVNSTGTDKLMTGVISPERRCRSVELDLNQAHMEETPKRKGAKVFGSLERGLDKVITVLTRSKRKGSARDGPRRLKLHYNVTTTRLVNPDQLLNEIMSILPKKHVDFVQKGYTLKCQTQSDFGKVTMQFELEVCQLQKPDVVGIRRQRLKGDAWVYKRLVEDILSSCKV
Assay [6] has as its target Serine/threonine-protein kinase Nek7 (Homo sapiens) (UniProt Q8TDX7). Put plainly: Inhibition of human NEK7 assessed as enzyme activity at 1 uM using casein as substrate preincubated for 20 mins followed by [gamma-33P]-ATP addition and measured after 120 mins by radiometric Hot-SpotSM Kinase assay relative to control.
Assay [7] has as its target T2, cGMP-dependent protein kinase 1 (Homo sapiens) (UniProt Q13976).
T2 sequence (whole entry): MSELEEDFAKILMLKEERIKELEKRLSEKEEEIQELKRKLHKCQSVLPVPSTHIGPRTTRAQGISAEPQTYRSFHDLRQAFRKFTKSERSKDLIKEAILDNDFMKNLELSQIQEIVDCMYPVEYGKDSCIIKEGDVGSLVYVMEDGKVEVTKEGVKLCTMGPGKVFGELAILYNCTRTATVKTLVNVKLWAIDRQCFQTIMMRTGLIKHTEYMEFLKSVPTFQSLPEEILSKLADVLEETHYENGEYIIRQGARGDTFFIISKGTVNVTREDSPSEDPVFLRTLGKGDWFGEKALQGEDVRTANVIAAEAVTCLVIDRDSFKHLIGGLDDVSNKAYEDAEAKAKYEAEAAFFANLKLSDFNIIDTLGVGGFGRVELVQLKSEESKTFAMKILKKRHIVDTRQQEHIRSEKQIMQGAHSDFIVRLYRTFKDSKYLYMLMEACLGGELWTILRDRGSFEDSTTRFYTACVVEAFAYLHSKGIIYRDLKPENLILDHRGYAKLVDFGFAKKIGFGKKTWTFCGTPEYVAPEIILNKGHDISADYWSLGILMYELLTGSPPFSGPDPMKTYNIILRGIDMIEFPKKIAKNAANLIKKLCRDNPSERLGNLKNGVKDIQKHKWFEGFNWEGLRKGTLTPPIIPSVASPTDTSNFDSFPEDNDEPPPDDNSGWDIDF
As to the kind of experiment: Inhibition of human PKG1b assessed as enzyme activity at 1 uM using LRRASLG as substrate preincubated for 20 mins followed by [gamma-33P]-ATP addition and measured after 120 mins by radiometric Hot-SpotSM Kinase assay relative to control.

The target of assay [8] is Testis-specific serine/threonine-protein kinase 6 (Homo sapiens) (UniProt Q9BXA6). As to the kind of experiment: Inhibition of human SSTK assessed as enzyme activity at 1 uM using myelin basic protein as substrate preincubated for 20 mins followed by [gamma-33P]-ATP addition and measured after 120 mins by radiometric Hot-SpotSM Kinase assay relative to control.
Sequence of Testis-specific serine/threonine-protein kinase 6 (Homo sapiens) (Q9BXA6 whole entry): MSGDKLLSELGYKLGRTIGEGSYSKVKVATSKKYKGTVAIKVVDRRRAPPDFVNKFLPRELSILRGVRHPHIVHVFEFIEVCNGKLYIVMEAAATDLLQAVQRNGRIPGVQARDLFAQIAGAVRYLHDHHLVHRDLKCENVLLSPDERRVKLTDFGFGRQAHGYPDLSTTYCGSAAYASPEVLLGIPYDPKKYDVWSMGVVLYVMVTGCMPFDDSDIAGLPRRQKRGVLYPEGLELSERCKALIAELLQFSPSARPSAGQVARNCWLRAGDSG
For assay [9], the target named is BDNF/NT-3 growth factors receptor (Homo sapiens) (UniProt Q16620). As to the kind of experiment: Inhibition of human TRKB assessed as enzyme activity at 1 uM using poly[Glu:Tyr] (4:1) as substrate preincubated for 20 mins followed by [gamma-33P]-ATP addition and measured after 120 mins by radiometric Hot-SpotSM Kinase assay relative to control.
Sequence of BDNF/NT-3 growth factors receptor (Homo sapiens) (Q16620 32-822 limits assumed): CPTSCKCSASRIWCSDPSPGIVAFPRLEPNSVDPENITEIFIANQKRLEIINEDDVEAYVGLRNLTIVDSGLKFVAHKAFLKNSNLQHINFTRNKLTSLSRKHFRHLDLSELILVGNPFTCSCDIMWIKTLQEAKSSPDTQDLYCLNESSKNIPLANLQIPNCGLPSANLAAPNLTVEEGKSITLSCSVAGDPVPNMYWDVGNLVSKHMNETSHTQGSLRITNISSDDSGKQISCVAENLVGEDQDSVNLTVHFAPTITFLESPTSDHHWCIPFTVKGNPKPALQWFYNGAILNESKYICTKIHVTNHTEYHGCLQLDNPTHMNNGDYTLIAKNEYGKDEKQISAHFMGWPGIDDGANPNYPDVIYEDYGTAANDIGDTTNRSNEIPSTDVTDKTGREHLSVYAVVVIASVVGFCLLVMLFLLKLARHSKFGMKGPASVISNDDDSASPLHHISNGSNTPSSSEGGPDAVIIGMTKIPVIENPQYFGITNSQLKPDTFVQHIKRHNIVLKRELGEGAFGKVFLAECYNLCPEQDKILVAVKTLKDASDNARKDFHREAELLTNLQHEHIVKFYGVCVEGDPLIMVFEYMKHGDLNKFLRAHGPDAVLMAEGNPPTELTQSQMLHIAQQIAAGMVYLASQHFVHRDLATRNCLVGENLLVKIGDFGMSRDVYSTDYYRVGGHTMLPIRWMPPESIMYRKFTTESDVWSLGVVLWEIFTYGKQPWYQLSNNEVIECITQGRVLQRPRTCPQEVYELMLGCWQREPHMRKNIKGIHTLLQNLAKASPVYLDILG
For assay [10], the target named is NT-3 growth factor receptor (Homo sapiens) (UniProt Q16288). As to the kind of experiment: Inhibition of human TRKC assessed as enzyme activity at 1 uM using poly[Glu:Tyr] (4:1) as substrate preincubated for 20 mins followed by [gamma-33P]-ATP addition and measured after 120 mins by radiometric Hot-SpotSM Kinase assay relative to control.
Sequence of NT-3 growth factor receptor (Homo sapiens) (Q16288 32-839 limits assumed): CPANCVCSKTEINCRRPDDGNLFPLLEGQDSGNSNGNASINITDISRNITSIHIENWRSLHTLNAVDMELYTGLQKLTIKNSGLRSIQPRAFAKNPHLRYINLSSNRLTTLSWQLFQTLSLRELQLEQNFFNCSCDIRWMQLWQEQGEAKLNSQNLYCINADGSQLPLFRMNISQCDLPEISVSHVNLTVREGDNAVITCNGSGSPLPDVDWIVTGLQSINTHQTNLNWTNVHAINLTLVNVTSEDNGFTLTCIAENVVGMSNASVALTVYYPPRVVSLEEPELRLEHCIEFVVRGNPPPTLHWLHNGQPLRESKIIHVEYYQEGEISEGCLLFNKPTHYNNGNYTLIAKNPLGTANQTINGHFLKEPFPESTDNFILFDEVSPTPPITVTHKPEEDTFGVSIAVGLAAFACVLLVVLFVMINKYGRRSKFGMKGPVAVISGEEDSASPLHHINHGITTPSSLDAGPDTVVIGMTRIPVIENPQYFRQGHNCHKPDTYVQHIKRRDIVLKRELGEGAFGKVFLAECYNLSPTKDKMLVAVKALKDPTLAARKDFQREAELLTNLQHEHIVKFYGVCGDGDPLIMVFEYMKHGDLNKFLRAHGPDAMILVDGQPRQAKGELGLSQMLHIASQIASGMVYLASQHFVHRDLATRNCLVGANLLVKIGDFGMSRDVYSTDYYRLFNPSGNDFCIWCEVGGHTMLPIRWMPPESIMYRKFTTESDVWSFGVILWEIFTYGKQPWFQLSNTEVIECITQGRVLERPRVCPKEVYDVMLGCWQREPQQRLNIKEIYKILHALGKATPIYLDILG

Sequence of Serine/threonine-protein kinase Nek7 (Homo sapiens) (Q8TDX7 whole entry, looked up): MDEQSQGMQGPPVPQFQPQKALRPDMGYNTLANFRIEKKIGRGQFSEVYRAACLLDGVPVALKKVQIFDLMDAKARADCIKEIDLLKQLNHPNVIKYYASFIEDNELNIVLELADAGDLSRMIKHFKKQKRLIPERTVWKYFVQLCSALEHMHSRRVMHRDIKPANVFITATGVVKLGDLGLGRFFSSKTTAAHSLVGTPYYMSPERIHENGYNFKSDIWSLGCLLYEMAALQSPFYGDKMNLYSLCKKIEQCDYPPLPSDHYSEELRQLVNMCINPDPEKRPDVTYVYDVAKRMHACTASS

With `C[C@H](Nc1ncnc2nc[nH]c12)c1cc2cccc(Cl)c2c(=O)n1-c1ccccc1`, the Activity in [1] was 103%; in [2] it was 106%; in assay [3], 101%; in assay [4], 100%; in assay [5], 94.5%; in assay [6], 100%. Moreover, the Activity in assay [7] is 95.9%; in [8] it was 103%; in [9], 95.8%; in assay [10], 91%.
Take `CC[C@H](Nc1ncnc2[nH]cnc12)c1nc2cccc(F)c2c(=O)n1-c1ccccc1`: the Activity in assay [1] was 107%; in assay [2], 97.3%; in [3], 99.3%; in [4], 100%; in [5], 93.6%; in [6], 97.3%. Further, the Activity in assay [7] was found to be 99.8%; in [8], 105%; in [9] it was 94.1%; in [10], 89.6%.
Take `CC(C)Oc1ccc(-c2nn([C@@H](C)c3oc4ccc(F)cc4c(=O)c3-c3cccc(F)c3)c3ncnc(N)c23)cc1F` [UMBRALISIB]: the Activity in assay [1] is 107%; in assay [2], 103%; in assay [3], 95.5%; in assay [4] it was 107%; in assay [5] it was 105%; in assay [6], 85.4%. Further, the Activity in [7] was determined as 90.3%; in assay [8] it was 102%; in [9], 96%; in assay [10], 88.7%.
